Assays:
[1] = Solubility in water of salicylic acid, cyclodextrins and cyclodextrin inclusion complexes; assay type: physicochemical; details: complexed with cyclodextrin
[2] = cited from earlier work

| Structure (SMILES) | solubility in complexed form (in words) [1] | solubility of salicylic acid in water ([2]; ambient temperatures, uncomplexed) | solubility of S.A. in water or mixed aqueous solvent (uncomplexed) ([2]; water or mixed aqueous solvent, starting value before complexation) |
| --- | --- | --- | --- |
| OCCOc1ccccc1 [phenoxyethanol] | more soluble in complexed form | – | – |
| O=C(O)c1ccccc1O [salicylic acid] | – | about 0.3% | about 0.3% |

From patent US5942501A, “Cyclodextrin derivative complex” (priority 1996, dated 1999)
